In general, IC50 refers to the concentration at which inhibition is half-maximal.

This note sets out measurements from patent US20110059043A1, “CHEMICAL COMPOUNDS” (priority 2009, published 2011).

Data set [1] concerns HCV replicon cells Huh 9B. The data set is described as follows: HCV replicon assay (luciferase). It counts as cell-based. The conditions noted are these: Hepatitis C virus, reduction of replicon level by 50% vs untreated cell control, 72 h. As to the method: (§1) HCV replicon cells Huh 9B (ReBlikon), containing the firefly luciferase—ubiquitin—neomycin phosphotransferase fusion protein and EMCV-IRES driven HCV polyprotein with cell culture adaptive mutations.
(§2) Cells were cultured at 37° C. in a 5% CO2 environment and split twice a week on seeding at 2×10^6 cells/flask on day 1 and 1×10^6 3 days later. G418 at 0.5 mg/ml was added to the culture medium but not the assay medium. The culture medium consisted of DMEM with […] glucose and glutamax (Gibco 61965-026) supplemented with 1×non-essential amino acids (Invitrogen 11140-035), penicillin (100 IU/ml)/streptomycin (100 μg/ml) (Invitrogen 15140-122), FCS (10%, 50 ml) and […] (Invitrogen 10131-027) & 10% Australian foetal calf serum (Invitrogen 10099-141).
(§3) A flask of cells was trypsinised and a cell count carried out. Cells were diluted to 100,000 cells/ml and 100 μl of this used to seed one opaque white 96-well plate (for the replicon assay) and one flat-bottomed clear plate (for the tox assay) for every five compounds to be tested for IC50. Wells G12 and H12 were left empty in the clear plate as the blank. Plates were then incubated at 37° C. in a 5% CO2 environment for 24 h.
(§4) On the following day compound dilutions are made up in medium at twice their desired final concentration in a clear round bottomed plate. All dilutions have a final DMSO concentration of 1%.
(§5) Once the dilution plate had been made up, controls and compounds were transferred to the assay plates (containing the cells) at 100 μl/well in duplicate wells. Exception: no compound was added to wells A1 and A2 of either plate and 100 μl of 1% DMSO was added to these instead. Plates were then incubated at 37° C. with 5% CO2 for 72 h.
At the end of the incubation time, the cells in the white plate were harvested by washing in PBS (100 μL per well) and gently tapping dry before addition of […] of lysis buffer (25 mM tris-phosphate, 8 mM MgCl2, 1 mM DTT, 1% Triton X-100, 15% glycerol. pH to 7.8 using KH2PO4 prior to triton and glycerol addition. Substrate was prepared: 23.5 mM beetle luciferin (Promega E1603), 26 mM ATP (Sigma O-2060) in […] Tris buffer pH 7.8 aliquoted and stored at −80° C. was thawed and diluted 1:50 in luciferase assay buffer (20 mM Tricine (Sigma T-0377), 1.07 mM magnesium carbonate hydroxide (Sigma M-5671), 0.1 mM EDTA (Sigma E-5134), 2.67 mM MgSO4(BDH 101514Y), 33.3 mM dithiothreitol (Sigma 150460) pH 7.8).
The M injector of the microplate luminometer (Lmax, Molecular Devices) was primed with 5×300 μl injections of the diluted substrate. After 5-60 min incubation in lysis buffer at room temperature, a plate was inserted into the luminometer and 100 μl luciferase assay reagent was added by the injector on the luminometer. The signal was measured using a 1 second delay followed by a 4 second measurement programme. The IC50, the concentration of the drug required for reducing the replicon level by 50% in relation to the untreated cell control value, can be calculated from the plot of the percentage reduction of the luciferase activity vs. drug concentration.
A general note: A replicon is a self-replicating genome or part of one, used to study replication in cells.

For data set [2], the target named is T1, Recombinant HCV polymerase (BK strain) (Hepatitis C virus genotype 1b, UniProt P26663).
T1 construct: Recombinant HCV polymerase (BK strain) was expressed and purified from E. coli with a 21 amino acid C-terminal deletion; His6; made in house; host or cells: E. coli
T1 sequence (P26663 2420-2989): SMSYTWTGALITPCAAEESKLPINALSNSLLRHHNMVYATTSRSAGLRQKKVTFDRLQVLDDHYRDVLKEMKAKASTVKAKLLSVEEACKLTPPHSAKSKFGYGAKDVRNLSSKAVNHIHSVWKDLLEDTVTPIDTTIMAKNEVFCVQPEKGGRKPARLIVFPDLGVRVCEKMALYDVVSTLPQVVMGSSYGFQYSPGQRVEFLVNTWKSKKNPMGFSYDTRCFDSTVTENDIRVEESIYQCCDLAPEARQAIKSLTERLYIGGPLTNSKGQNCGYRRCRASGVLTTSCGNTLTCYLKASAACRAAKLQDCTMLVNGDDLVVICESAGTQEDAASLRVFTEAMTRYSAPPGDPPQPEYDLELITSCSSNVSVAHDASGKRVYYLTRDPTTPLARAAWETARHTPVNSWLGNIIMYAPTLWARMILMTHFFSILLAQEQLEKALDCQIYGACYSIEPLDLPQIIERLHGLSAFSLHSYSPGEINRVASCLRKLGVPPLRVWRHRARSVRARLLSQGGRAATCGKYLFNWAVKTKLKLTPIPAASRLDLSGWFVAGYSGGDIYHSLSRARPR
Kind of data set: HCV polymerase enzyme assay (radiometric [33P]-UTP incorporation). It counts as biochemical, HCV 1b. The procedure: Compounds were tested for inhibition of HCV polymerase using a radiometric [^33P]-UTP incorporation assay and a biotinylated U13:PolyA primer:template RNA substrate.
Recombinant HCV polymerase (BK strain) was expressed and purified from E. coli with a 21 amino acid C-terminal deletion and a His6-tag. The general assay buffer consisted of 20 mM Tris (pH 7.5), 25 mM KCl, 5 mM MgCl2, 3 mM DTT, 0.5 mg/ml BSA, 0.01% Tween20. The standard reaction, in 96 well plates, contained 10 μl of diluted compound, 50 μl of substrate and 40 μl of enzyme. Compounds, supplied as 10 mM stocks in DMSO, were diluted initially in neat DMSO, and subsequently buffer was added to give a DMSO concentration of 30%; 10 μl of this was added to the assay plate to give a final concentration in the 100 μl assay of 3% DMSO. The biotinylated U13:PolyA RNA substrate was pre-annealed with 40 μM 5′-biotinylated U13 (Dharmacon) and 213 μg/ml PolyA (Amersham Biosciences) in water incubated at 70° C. for 5 minutes before being cooled on ice. Substrate (50 μl) was added in buffer to give a final concentration in the 100 μl assay of 125 nM biotinylated U13:0.63 μg/ml PolyA and 200 nM UTP with 0.4 μCi [^33P]-UTP per well (Perkin Elmer). The reaction was initiated by the addition of 40 μl of enzyme in buffer to give 100 nM final concentration. The reaction was incubated at 25° C. for 100 minutes and then stopped by addition of 100 μl of 100 mM EDTA. The samples were then transferred to 96 well Streptavidin-coated FlashPlates (Perkin Elmer) and incubated at room temperature for ˜1 hour to allow binding to occur. The plates were then washed three times with phosphate-buffered saline containing 0.05% Tween20 in an automated plate washer to remove unincorporated [^33P]-UTP, and then counted in a
Each plate included a set of positive controls (no compound, maximum signal) and negative controls (no enzyme, minimum signal) and in each run at least one reference is compound was included to validate the assay. The IC50, concentration required to inhibit the enzyme activity by 50%, was calculated using an 8-point IC50 curve and fitted using the program XLfit (IDBS).

Data set [3] concerns HCV replicon cells Huh 9B. It counts as cell-based. The conditions noted are these: concentration reducing total cell area by 50% relative to DMSO controls; 72 h. The procedure:
as §1, §2, §3, §4, §5
The clear plate was stained with 100 μl 0.5% methylene blue in 50% ethanol at room temperature for lh, followed by solvation of the absorbed methylene blue in 100 μl per well of 1% lauroylsarcosine. Absorbance of the plate was measured on a microplate spectrophotometer (Molecular Devices) and the absorbance for each concentration of compound expressed as a proportion of the relative DMSO control. The TD50, the concentration of drug required to reduce the total cell area by 50% relative to the DMSO controls, can be calculated by plotting the absorbance at 620 nm minus background against drug concentration.

Consider `COCCOc1ccc(Cl)cc1C(=O)NC1N=C(c2c(Cl)cc(Cl)cc2Cl)c2ccccc2NC1=O` (stereo not drawn) [Example 14, 5-Chloro-2-(2-methoxyethoxy)-N-(2-oxo-5-(2,4,6-trichlorophenyl)-2,3-dihydro-1H-benzo[e][1,4]diazepin-3-yl)benzamide], for which the IC50 is 0.0833 µM in data set [1] and 0.154 µM in data set [2]. Also, the “Replicon Assay Value TD50” value in data set [3] was 19.834 µM.
The like results for `COCCOc1ccccc1C(=O)NC1N=C(c2c(Cl)cc(Cl)cc2Cl)c2ccccc2NC1=O` (stereo not drawn) [Example 15, 2-(2-Methoxyethoxy)-N-(2-oxo-5-(2,4,6-trichlorophenyl)-2,3-dihydro-1H-benzo[e][1,4]diazepin-3-yl)benzamide] were, in that order, 0.11 µM, 0.299 µM and 25.845 µM.
The like results for `COCCOc1ccc(F)cc1C(=O)NC1N=C(c2c(Cl)cc(Cl)cc2Cl)c2ccccc2NC1=O` (stereo not drawn) [Example 16, 5-Fluoro-2-(2-methoxyethoxy)-N-(2-oxo-5-(2,4,6-trichlorophenyl)-2,3-dihydro-1H-benzo[e][1,4]diazepin-3-yl)benzamide] were, in that order, 0.0387 µM, 0.119 µM and 22.094 µM.
With `COCCOc1ccc(C)cc1C(=O)NC1N=C(c2c(Cl)cc(Cl)cc2Cl)c2ccccc2NC1=O` (stereo not drawn) [Example 17, 2-(2-Methoxyethoxy)-5-methyl-N-(2-oxo-5-(2,4,6-trichlorophenyl)-2,3-dihydro-1H-benzo[e][1,4]diazepin-3-yl)benzamide], the IC50 in data set [1] stood at 0.0788 µM; in data set [2] it was 0.235 µM. Also, the “Replicon Assay Value TD50” value in data set [3] is more than 25 µM.
In the same order, the values of `COCCOc1ccc(C(C)=O)cc1C(=O)NC1N=C(c2c(Cl)cc(Cl)cc2Cl)c2ccccc2NC1=O` (stereo not drawn) [Example 18, 5-Acetyl-2-(2-methoxyethoxy)-N-(2-oxo-5-(2,4,6-trichlorophenyl)-2,3-dihydro-1H-benzo[e][1,4]diazepin-3-yl)benzamide] are 0.876 µM, 0.385 µM and 15.802 µM.
In the same order, the values of `COCCOc1ccc(OC(F)(F)F)cc1C(=O)NC1N=C(c2c(Cl)cc(Cl)cc2Cl)c2ccccc2NC1=O` (stereo not drawn) [Example 19, 2-(2-Methoxyethoxy)-N-(2-oxo-5-(2,4,6-trichlorophenyl)-2,3-dihydro-1H-benzo[e][1,4]diazepin-3-yl)-5-(trifluoromethoxy)benzamide] are 0.645 µM, 2.15 µM and more than 25 µM.
`COCCOc1ccc(Br)cc1C(=O)NC1N=C(c2c(Cl)cc(Cl)cc2Cl)c2ccccc2NC1=O` (stereo not drawn) [Example 20, 5-Bromo-2-(2-methoxyethoxy)-N-(2-oxo-5-(2,4,6-trichlorophenyl)-2,3-dihydro-1H-benzo[e][1,4]diazepin-3-yl)benzamide]: the IC50 is 0.195 µM in data set [1] and 0.535 µM in data set [2]. For the same compound, in data set [3], the “Replicon Assay Value TD50” value is more than 25 µM.
Consider `CC(=O)NCCOc1ccc(Cl)cc1C(=O)NC1N=C(c2c(Cl)cc(Cl)cc2Cl)c2ccccc2NC1=O` (stereo not drawn) [Example 21, 2-(2-Acetamidoethoxy)-5-chloro-N-(2-oxo-5-(2,4,6-trichlorophenyl)-2,3-dihydro-1H-benzo[e][1,4]diazepin-3-yl)benzamide], for which the IC50 in data set [1] was 0.824 µM; in data set [2] it was 0.0987 µM. For the same compound, in data set [3], the “Replicon Assay Value TD50” value worked out at 13.188 µM.
The like results for `CCC(=O)NCCOc1ccc(Cl)cc1C(=O)NC1N=C(c2c(Cl)cc(Cl)cc2Cl)c2ccccc2NC1=O` (stereo not drawn) [Example 22, 5-Chloro-N-(2-oxo-5-(2,4,6-trichlorophenyl)-2,3-dihydro-1H-benzo[e][1,4]diazepin-3-yl)-2-(2-propionamidoethoxy)benzamide] were, in that order, 0.953 µM, 0.197 µM and 12.304 µM.
The like results for `CS(=O)(=O)NCCOc1ccc(Cl)cc1C(=O)NC1N=C(c2c(Cl)cc(Cl)cc2Cl)c2ccccc2NC1=O` (stereo not drawn) [Example 23, 5-Chloro-2-(2-(methylsulfonamido)ethoxy)-N-(2-oxo-5-(2,4,6-trichlorophenyl)-2,3-dihydro-1H-benzo[e][1,4]diazepin-3-yl)benzamide] were, in that order, 2.91 µM, 0.952 µM and 12.744 µM.
The like results for `CCNC(=O)NCCOc1ccc(Cl)cc1C(=O)NC1N=C(c2c(Cl)cc(Cl)cc2Cl)c2ccccc2NC1=O` (stereo not drawn) [Example 24, 5-Chloro-2-(2-(3-ethylureido)ethoxy)-N-(2-oxo-5-(2,4,6-trichlorophenyl)-2,3-dihydro-1H-benzo[e][1,4]diazepin-3-yl)benzamide] were, in that order, 1.28 µM, 0.281 µM and 11.815 µM.
`CC(=O)NCCCOc1ccc(Cl)cc1C(=O)NC1N=C(c2c(Cl)cc(Cl)cc2Cl)c2ccccc2NC1=O` (stereo not drawn) [Example 25, 2-(3-Acetamidopropoxy)-5-chloro-N-(2-oxo-5-(2,4,6-trichlorophenyl)-2,3-dihydro-1H-benzo[e][1,4]diazepin-3-yl)benzamide]: the concentration for half-maximal inhibition (IC50) worked out at 0.575 µM in data set [1] and 0.459 µM in data set [2]. For the same compound, the “Replicon Assay Value TD50” value in data set [3] turned out to be 12.774 µM.
In the same order, the values of `CCC(=O)NCCCOc1ccc(Cl)cc1C(=O)NC1N=C(c2c(Cl)cc(Cl)cc2Cl)c2ccccc2NC1=O` (stereo not drawn) [Example 26, 5-Chloro-N-(2-oxo-5-(2,4,6-trichlorophenyl)-2,3-dihydro-1H-benzo[e][1,4]diazepin-3-yl)-2-(3-propionamidopropoxy)benzamide] are 1.62 µM, 0.647 µM and 12.354 µM.
